Literature values, collected in patent publication US9630917B2, “Cysteamine prodrugs, pharmaceutical compositions thereof, and methods of use” (priority 2015, dated 2017).

Details: oral absorption; Smolin et al., Ped Res. 1988; 23, 616-620

In the case of `NCCS` [cysteamine], the absolute bioavailability is listed as “about 10%”.
